Source: paper PMC8197800, “Structure and Dynamics of Meprin β in Complex with a Hydroxamate-Based Inhibitor” (International Journal of Molecular Sciences, 2021)
Like-named read-outs stand apart in the source and are kept apart here.

Experiments:
Meprin α = details: cited from earlier work
Meprin β = target: T1, Meprin β (Homo sapiens, UniProt Q16820); test: Meprin β enzyme inhibition (cleavage of quenched fluorogenic peptide Abz-YVAEAPK(Dnp)G-OH); type: biochemical
T1 construct: For the purified, truncated variant Meprin β^62–595 (MβΔC), despite reduced protein yield, identical specific activity was detected; His-tag (N, cleaved yes); made in house; host or cells: Pichia pastoris
T1 sequence (Q16820 62-595): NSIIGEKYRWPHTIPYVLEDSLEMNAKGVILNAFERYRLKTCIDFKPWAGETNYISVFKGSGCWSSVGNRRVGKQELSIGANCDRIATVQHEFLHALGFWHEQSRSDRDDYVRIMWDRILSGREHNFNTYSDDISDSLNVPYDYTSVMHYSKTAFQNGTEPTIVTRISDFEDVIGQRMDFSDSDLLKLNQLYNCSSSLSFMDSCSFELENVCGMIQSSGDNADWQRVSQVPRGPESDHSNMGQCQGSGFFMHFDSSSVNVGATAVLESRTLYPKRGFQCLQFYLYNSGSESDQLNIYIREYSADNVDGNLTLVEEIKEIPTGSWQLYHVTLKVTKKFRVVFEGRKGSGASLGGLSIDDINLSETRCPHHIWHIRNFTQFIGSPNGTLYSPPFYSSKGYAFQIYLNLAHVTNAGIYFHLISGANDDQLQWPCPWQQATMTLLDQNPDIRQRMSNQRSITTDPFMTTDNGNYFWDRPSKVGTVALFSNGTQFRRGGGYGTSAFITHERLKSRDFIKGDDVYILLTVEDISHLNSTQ
Experimental: The enzymatic activity of Meprin β was determined, essentially as described previously. The assay is based on the change of fluorescence intensity due to cleavage of the internally quenched peptide substrate Abz-YVAEAPK(Dnp)G-OH (λex 340 nm/λem 420 nm). For activity determination during expression and purification, the proenzyme was activated by trypsin. For activation, 100 µL of cleavage buffer (50 mM Tris/HCl, 10 mM CaCl2, pH 7.5), 50 µL Meprin β solution and 50 µL bovine trypsin 500 µg/mL (Sigma Aldrich) were mixed and incubated for 15 min at 30 °C. An aliquot of the reaction (50 µL) was mixed again with 150 µL assay buffer consisting of 40 mM Tris/HCl, pH 8.0, 0.05% Brij 30. The reaction was initiated by addition of 50 µL of substrate (final concentration 50 µM), which was dissolved in assay buffer.

Meprin β62–595 (MβΔC) [1] = target: T2, Meprin β62–595 (MβΔC) (Homo sapiens, UniProt Q16820); test: Isothermal titration calorimetry (ITC) of inhibitors to Meprin β62–595 (MβΔC); type: binding; set-up: H (one-site fit) / S (one-site fit): unit not given here; details: for H (one-site fit) / K (association constant, one-site fit) / N (stoichiometry, one-site fit) / S (one-site fit): ITC fit; for Kd / ΔH (binding enthalpy) / −ΔS * T (binding entropy term): ITC, 30 °C
T2 construct: His-tag (N, cleaved yes); α-mating factor secretion signal (S. cerevisiae) (N, cleaved yes); made in house; host or cells: Pichia pastoris X33
T2 sequence (Q16820 62-595): T1 sequence (Q16820 62-595)
Experimental: The binding affinity (KD), binding enthalpy (ΔH), binding entropy (ΔS) and stoichiometry (N) of different Meprin β inhibitors to Meprin β^62–595 (MβΔC) were determined by isothermal titration of the inhibitors to the enzyme at 30 °C using a VP-ITC microcalorimeter (MicroCal). Prior to the binding analysis, the purified Meprin β^62–595 (MβΔC) was dialyzed extensively against 40 mM Tris pH 8.0 (±150 mM NaCl). The inhibitors were diluted 1:50 from DMSO stock solutions into dialysis buffer and 2% (v/v) DMSO were added to the dialyzed enzyme solution immediately before starting the titration experiment. The instrument was operated according to the manufacturer’s instructions and the data analyzed using MicroCal ORIGIN software. The obtained binding heat was corrected by the dilution heat of the ligand, which was recorded by titration of the inhibitor (1:50 diluted) into the dialysis buffer containing 2% (v/v) DMSO. The corrected data were evaluated by a single-site binding model calculating N, KD, ΔH and ΔS.
1. MWT-S-270 (-NaCl) 2. MWT-S-270 (+ NaCl)
Figure S7: ITC binding curves for the titration of Meprin β62-595 (MβΔC) with different inhibitors. […]

Meprin β62–595 (MβΔC) [2] = target: T2, Meprin β62–595 (MβΔC); test: Proteolytic stability of concentrated Meprin β62–595 (MβΔC) with inhibitor, SDS-PAGE; details: 15 °C; for stability of Meprin β62–595 (MβΔC) with inhibitor added: SDS-PAGE; for degradation of Meprin β62–595 (MβΔC) on addition of inhibitor: up to 15 days, molar ratio 1:1.3 (actinonin), 1:1.2 (MWT-S-270)
Experimental: For reduction of potential heterogeneity, flexible glycosyl chains were removed by deglycosylation. The influence of different detergents and protein concentrations on the deglycosylation and stability of the enzyme has been investigated and analyzed by SDS-PAGE. […] To prevent degradation, the non-specific Meprin β inhibitor actinonin or the specific Meprin β inhibitor MWT-S-270 was added to the protein solution in a molar ratio of 1:1.3 and 1:1.2, respectively.
For the removal of surface-exposed glycosyl chains, a deglycosylation was performed prior to crystallization.
(MβΔC) before and after deglycosylation by EndoH under native conditions.
(1 picture or pasted object on this page, not shown here)

[3] = 40 mM Tris pH 8.0 (no NaCl), read-out: Ki

| SMILES | H (one-site fit) (Meprin β62–595 (MβΔC) [1]; Figure S7, -NaCl) | K (association constant, one-site fit) (Meprin β62–595 (MβΔC) [1]; Figure S7, -NaCl) | N (stoichiometry, one-site fit) (Meprin β62–595 (MβΔC) [1]; Figure S7, -NaCl) | S (one-site fit) (Meprin β62–595 (MβΔC) [1]; Figure S7, -NaCl) | Kd (Meprin β62–595 (MβΔC) [1]; 40 mM Tris pH 8.0 (no NaCl)) | ΔH (binding enthalpy) (Meprin β62–595 (MβΔC) [1]; 40 mM Tris pH 8.0 (no NaCl)) | −ΔS * T (binding entropy term) (Meprin β62–595 (MβΔC) [1]; 40 mM Tris pH 8.0 (no NaCl)) | stability of Meprin β62–595 (MβΔC) with inhibitor added (Meprin β62–595 (MβΔC) [2]) | degradation of Meprin β62–595 (MβΔC) on addition of inhibitor (Meprin β62–595 (MβΔC) [2]) | IC50 (Meprin β; 40 mM Tris pH 8.0 (no NaCl)) | Ki (Meprin β; [3]) | further results |
| --- | --- | --- | --- | --- | --- | --- | --- | --- | --- | --- | --- | --- |
| O=C(CN(Cc1cccc(C(=O)O)c1)Cc1cccc(C(=O)O)c1)NO [1 (270), 3-[[(3-Carboxyphenyl)methyl-[2-(hydroxyamino)-2-oxoethyl]amino]methyl]benzoic acid] | -3884 ±41.29 | 6.31E7 ±1.05E7 | 0.939 ±0.00648 | 22.9 | 16 nM | -3.884 kcal/mol | -6.939 kcal/mol | at least 15 days | prevented |  |  | IC50 (Meprin α; read-out: IC50 towards Meprin α): 16000 nM; stronger inhibition of Meprin β in comparison to Meprin α (Meprin α; selectivity Meprin β over Meprin α): more than 100 fold; IC50 (Meprin β; 150 mM NaCl, 40 mM Tris pH 8.0): 176 nM; Ki (Meprin β; 150 mM NaCl, 40 mM Tris pH 8.0, read-out: Ki): 198 nM; Ki (Meprin β; Ki, 40 mM Tris pH 8.0 (no NaCl)): 28.6 nM; H (one-site fit) (Meprin β62–595 (MβΔC) [1]; Figure S7, + NaCl): -4554 ±133,1; K (association constant, one-site fit) (Meprin β62–595 (MβΔC) [1]; Figure S7, + NaCl): 2,50E6 ±5,30E5; N (stoichiometry, one-site fit) (Meprin β62–595 (MβΔC) [1]; Figure S7, + NaCl): 1,13 ±0,0246; S (one-site fit) (Meprin β62–595 (MβΔC) [1]; Figure S7, + NaCl): 14,2; Kd (Meprin β62–595 (MβΔC) [1]; 150 mM NaCl, 40 mM Tris pH 8.0): 400 nM; ΔH (binding enthalpy) (Meprin β62–595 (MβΔC) [1]; 150 mM NaCl, 40 mM Tris pH 8.0): -4.554 kcal/mol; −ΔS * T (binding entropy term) (Meprin β62–595 (MβΔC) [1]; 150 mM NaCl, 40 mM Tris pH 8.0): -4.303 kcal/mol |
| O=C(CN(Cc1cccc(C(=O)O)c1)Cc1ccc2c(c1)OCO2)NO [2 (416)] | -3966 ±57,47 | 4,21E6 ±6,18E5 | 1,06 ±0,0110 | 17,2 | 237 nM | -3.966 kcal/mol | -5.212 kcal/mol |  |  | 285 nM | 192 nM |  |
| O=C(CN(Cc1ccccc1)Cc1cccc(C(=O)O)c1)NO [3 (396)] | -1138 ±32.08 | 1.34E6 ±2.22E5 | 1.09 ±0.0225 | 24.3 | 746 nM | -1.138 kcal/mol | -7.363 kcal/mol |  |  | 1280 nM | 1390 nM |  |
| CCCCC[C@H](CC(=O)NO)C(=O)N[C@H](C(=O)N1CCC[C@H]1CO)C(C)C [actinonin, reference compound] |  |  |  |  |  |  |  | at least 15 days | prevented |  |  |  |
